# Columns and labels:
# BRD9 [1] = target: T1, BRD9 (Homo sapiens, UniProt Q9H8M2); assay: In-vivo BRD9 degradation in the Yamato-SS xenograft model; settings: various concentrations and times, FIG. 12
# T1 sequence (Q9H8M2 1-597): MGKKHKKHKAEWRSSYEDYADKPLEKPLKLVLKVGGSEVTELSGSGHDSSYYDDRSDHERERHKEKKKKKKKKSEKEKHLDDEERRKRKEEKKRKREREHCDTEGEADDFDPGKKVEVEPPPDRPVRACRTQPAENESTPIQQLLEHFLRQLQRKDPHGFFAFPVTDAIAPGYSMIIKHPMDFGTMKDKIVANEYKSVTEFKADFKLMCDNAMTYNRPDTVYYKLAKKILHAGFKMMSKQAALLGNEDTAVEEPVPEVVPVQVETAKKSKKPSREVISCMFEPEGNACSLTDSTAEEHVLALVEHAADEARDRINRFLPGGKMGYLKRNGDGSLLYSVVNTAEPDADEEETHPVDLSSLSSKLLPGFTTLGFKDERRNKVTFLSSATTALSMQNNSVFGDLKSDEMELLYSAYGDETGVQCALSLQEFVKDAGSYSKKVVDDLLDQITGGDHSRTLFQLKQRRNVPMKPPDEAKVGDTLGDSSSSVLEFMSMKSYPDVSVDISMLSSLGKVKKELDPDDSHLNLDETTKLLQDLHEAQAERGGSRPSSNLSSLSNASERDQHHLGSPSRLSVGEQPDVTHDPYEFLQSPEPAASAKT
# BRD7 = target: T2, BRD7 (Homo sapiens, UniProt Q9NPI1); assay: BRD7 degradation (24 h), HiBiT 293T.167 cells; assay type: cell-based
# T2 construct: endogenously expressing BRD7 with HiBiT fusion tag via CRISPR; host or cells: 293T.167 (BRD7-HiBiT), also expressing LgBiT ectopically
# T2 sequence (Q9NPI1 whole entry, the tested form may be a part): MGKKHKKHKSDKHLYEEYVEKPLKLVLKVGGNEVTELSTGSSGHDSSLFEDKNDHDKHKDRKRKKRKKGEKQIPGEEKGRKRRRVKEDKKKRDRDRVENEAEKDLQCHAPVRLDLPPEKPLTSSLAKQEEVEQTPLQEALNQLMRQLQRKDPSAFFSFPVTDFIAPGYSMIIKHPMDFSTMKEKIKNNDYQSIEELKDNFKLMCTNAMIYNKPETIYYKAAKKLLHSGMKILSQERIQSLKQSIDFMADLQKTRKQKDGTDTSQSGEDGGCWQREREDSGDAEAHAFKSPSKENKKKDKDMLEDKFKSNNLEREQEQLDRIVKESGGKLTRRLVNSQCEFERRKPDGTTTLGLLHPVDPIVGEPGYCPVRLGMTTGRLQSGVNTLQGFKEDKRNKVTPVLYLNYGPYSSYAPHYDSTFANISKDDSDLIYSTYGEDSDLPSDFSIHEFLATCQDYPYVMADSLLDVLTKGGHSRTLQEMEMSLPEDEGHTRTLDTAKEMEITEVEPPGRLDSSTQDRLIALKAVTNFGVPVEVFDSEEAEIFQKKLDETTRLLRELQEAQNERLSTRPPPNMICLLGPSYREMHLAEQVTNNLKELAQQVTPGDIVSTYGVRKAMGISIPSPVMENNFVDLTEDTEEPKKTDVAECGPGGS
# From the text: Dulbecco's modified Eagle medium (DMEM) without phenol red and fetal bovine serum (FBS) were purchased from Gibco (Grand Island, N.Y., USA). Nano-Glo® HiBiT Lytic Assay System was purchased from Promega (Madison, Wis., USA). 293T.166 (BRD9-HiBiT) cell line, endogenously expressing BRD9 with HiBiT fusion tag via CRISPR and ectopically expressing LgBiT tag, was purchased from Promega (Madison, Wis., USA). 293T.167 (BRD7-HiBiT) cell line, endogenously expressing BRD7 with HiBiT fusion tag via CRISPR and ectopically expressing LgBiT tag, was purchased from Promega (Madison, Wis., USA). 293T.92 (BRD4-HiBiT) cell line, endogenously expressing BRD4 with HiBiT fusion tag via CRISPR and ectopically expressing LgBiT tag, was generated in-house. Cell culture flasks and 384-well microplates were acquired from VWR (Radnor, Pa., USA).
# BRD9 degradation was determined based on quantification of luminescent signal using Nano-Glo® HiBiT Lytic Assay kit. Test compounds were added to the 384-well plate from a top concentration of 10 μM with 11 points, half log titration in duplicates. 293T.166 cells were added into 384-well plates at a cell density of 10,000 cells per well. […] BRD7 and BRD4 degradation was similarly determined with 293T.167 cells and 293T.92 cells, respectively. […] Luminescence was acquired on EnVision™ Multilabel Reader (PerkinElmer, Santa Clara, Calif., USA).
# BRD9 [2] = target: BRD9 (Mus musculus, UniProt Q3UQU0); assay: BRD9 degradation in mouse cells (24 h); assay type: cell-based
# BRD9 (Mus musculus, UniProt Q3UQU0), sequence (Q3UQU0 whole entry): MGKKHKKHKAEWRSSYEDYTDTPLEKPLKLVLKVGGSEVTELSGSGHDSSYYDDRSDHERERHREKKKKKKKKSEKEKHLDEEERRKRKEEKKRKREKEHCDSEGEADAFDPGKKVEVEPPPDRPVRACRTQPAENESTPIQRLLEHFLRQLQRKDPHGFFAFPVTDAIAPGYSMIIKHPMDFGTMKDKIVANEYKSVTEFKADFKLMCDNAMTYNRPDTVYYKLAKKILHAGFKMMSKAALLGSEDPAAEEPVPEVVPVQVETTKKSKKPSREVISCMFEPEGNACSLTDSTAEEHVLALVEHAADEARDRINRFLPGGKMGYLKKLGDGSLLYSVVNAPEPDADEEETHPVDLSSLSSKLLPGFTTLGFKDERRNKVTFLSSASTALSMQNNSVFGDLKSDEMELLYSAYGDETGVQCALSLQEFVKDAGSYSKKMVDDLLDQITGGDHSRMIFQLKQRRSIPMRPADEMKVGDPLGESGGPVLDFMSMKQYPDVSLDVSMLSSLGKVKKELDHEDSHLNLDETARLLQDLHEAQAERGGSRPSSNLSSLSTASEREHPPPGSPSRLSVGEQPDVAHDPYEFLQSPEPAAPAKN
# BRD9 [3] = target: BRD9 (Rattus norvegicus, UniProt D4ACF5); assay: BRD9 degradation in rat cells (24 h); assay type: cell-based
# BRD9 (Rattus norvegicus, UniProt D4ACF5), sequence (D4ACF5 1-761): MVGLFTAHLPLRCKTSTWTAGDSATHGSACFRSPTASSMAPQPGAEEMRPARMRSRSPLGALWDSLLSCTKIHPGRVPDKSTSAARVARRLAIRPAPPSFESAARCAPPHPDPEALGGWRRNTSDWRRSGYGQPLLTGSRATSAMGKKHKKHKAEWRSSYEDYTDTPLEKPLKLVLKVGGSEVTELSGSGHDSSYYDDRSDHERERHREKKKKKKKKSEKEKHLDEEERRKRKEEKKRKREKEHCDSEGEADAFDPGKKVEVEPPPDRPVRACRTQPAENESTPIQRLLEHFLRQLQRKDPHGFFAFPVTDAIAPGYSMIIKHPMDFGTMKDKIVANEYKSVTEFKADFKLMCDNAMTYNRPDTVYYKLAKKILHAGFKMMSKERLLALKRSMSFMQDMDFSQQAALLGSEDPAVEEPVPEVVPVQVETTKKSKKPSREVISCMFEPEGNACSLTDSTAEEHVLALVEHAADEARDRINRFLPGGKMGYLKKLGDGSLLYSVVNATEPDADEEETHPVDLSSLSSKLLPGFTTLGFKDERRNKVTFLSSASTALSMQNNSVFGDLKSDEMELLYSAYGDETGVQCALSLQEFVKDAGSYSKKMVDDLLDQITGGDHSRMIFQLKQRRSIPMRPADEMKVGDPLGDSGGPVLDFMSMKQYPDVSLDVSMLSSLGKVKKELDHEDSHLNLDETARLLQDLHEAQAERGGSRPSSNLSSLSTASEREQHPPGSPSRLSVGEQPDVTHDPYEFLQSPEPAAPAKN
# BRD9 [4] = target: BRD9 (Canis lupus familiaris, UniProt A0A8I3PU24); assay: BRD9 degradation in dog cells (24 h); assay type: cell-based
# BRD9 (Canis lupus familiaris, UniProt A0A8I3PU24), sequence (A0A8I3PU24 1-600): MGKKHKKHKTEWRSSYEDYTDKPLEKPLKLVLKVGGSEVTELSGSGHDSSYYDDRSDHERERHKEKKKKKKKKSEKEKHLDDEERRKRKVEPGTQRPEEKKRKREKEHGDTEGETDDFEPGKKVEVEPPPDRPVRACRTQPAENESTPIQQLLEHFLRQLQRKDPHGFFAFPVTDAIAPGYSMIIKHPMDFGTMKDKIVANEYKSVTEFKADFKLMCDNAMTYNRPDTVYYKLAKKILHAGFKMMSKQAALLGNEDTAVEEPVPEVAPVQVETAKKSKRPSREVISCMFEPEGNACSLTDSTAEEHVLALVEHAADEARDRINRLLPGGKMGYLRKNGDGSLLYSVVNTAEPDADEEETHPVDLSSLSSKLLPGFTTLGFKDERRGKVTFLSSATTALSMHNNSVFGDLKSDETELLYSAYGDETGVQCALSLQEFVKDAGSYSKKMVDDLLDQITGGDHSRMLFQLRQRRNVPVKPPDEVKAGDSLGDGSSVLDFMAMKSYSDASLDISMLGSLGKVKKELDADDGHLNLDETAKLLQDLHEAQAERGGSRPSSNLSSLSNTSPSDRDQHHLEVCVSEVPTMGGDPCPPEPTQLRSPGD
# CYP 2C9 = CYP 2C9 (Homo sapiens, UniProt P11712); assay: CYP inhibition 2C9; assay type: in vitro ADME
# CYP 2C9, sequence (P11712 whole entry): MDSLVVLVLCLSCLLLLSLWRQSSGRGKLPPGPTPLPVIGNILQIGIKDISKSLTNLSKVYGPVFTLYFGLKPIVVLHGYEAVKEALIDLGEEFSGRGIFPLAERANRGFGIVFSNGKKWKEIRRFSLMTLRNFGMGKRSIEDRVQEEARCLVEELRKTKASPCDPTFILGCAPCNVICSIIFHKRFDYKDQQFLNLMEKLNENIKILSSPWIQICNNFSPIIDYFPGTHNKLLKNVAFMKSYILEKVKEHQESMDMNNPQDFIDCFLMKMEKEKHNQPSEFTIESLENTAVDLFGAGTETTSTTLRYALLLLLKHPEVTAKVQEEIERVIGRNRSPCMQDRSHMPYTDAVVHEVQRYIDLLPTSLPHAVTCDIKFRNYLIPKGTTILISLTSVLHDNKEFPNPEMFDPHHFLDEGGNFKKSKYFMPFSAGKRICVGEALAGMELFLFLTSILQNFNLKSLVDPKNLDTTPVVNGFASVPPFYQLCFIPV
# CYP 2D6 = CYP 2D6 (Homo sapiens, UniProt P10635); assay: CYP inhibition 2D6; assay type: in vitro ADME
# CYP 2D6, sequence (P10635 whole entry): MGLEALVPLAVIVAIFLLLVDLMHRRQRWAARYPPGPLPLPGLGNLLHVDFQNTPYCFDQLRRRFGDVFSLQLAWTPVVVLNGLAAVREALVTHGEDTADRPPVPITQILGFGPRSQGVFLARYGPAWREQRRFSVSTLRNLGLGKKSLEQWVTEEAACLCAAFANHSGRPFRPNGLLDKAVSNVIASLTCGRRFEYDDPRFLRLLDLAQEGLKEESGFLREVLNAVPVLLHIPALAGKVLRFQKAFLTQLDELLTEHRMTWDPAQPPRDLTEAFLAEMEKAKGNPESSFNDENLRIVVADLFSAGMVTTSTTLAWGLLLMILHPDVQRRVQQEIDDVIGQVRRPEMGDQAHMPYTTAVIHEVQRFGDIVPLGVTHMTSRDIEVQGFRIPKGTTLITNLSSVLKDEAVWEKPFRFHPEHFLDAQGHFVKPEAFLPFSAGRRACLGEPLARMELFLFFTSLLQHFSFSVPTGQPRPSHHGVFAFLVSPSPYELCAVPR
# Caco-2 permeability = assay type: in vitro ADME; settings: human
smiles,measurement,setting,value
"COc1cc(-c2cn(C)c(=O)c(C)c2C)cc(OC)c1CN1CCC(N2CCN(c3ccc(NC4CCC(=O)NC4=O)cc3F)CC2)C(F)(F)C1 (centres unmarked) [Compound 172, 3-[4-[4-[1-[[2,6-dimethoxy-4-(1,4,5-trimethyl-6-oxo-3-pyridyl)phenyl]methyl]-3,3-difluoro-4-piperidyl]piperazin-1-yl]-3-fluoro-anilino]piperidine-2,6-dione]",in-vivo BRD9 degradation (normalized concentration),BRD9 [1],dose dependent in-vivo BRD9 degradation
same,Emax,BRD7,100%
same,DC50,"BRD7; 24 h, read-out: BRD7 degradation (24 h), IP",> 9990 nM
same,"BRD9 degradation mouse cells (24 h), percent",BRD9 [2],36%
same,DC50,"BRD9 [2]; read-out: BRD9 degradation mouse cells (24 h), concentration",99 nM
same,"BRD9 degradation rat cells (24 h), percent",BRD9 [3],53%
same,DC50,"BRD9 [3]; read-out: BRD9 degradation rat cells (24 h), concentration",1000 nM
same,"BRD9 degradation dog cells (24 h), percent",BRD9 [4],36.4%
same,DC50,"BRD9 [4]; read-out: BRD9 degradation dog cells (24 h), concentration",99 nM
same,IC50,CYP 2C9,30000 nM
same,IC50,CYP 2D6,30000 nM
same,efflux ratio,Caco-2 permeability,2.64
same,Papp A→B,Caco-2 permeability; A-B,7.1 ×10⁻⁶ cm/s
same,Papp B→A,Caco-2 permeability; B-A,18.7 ×10⁻⁶ cm/s

# Source: patent US11691972B2, “Compounds for targeted degradation of BRD9” (C4 Therapeutics, Inc., priority 2020, dated 2023)
